The values below come from ChEMBL document CHEMBL1201862, “PubChem BioAssay data set” (2004).

Each structure is given as a SMILES string. Values joined by “and” are separate entries in the source; they are usually repeats but may differ in a detail not shown here. Equal values may be shown once. Active and inactive are the calls of the source. Rule as the data show it, for most assays here: actives have a measured EC50 and inactives only a lower limit.

One experiment concerns the target Cytochrome P450 2D6 (Homo sapiens, UniProt P10635).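 Also: CYP2D6 member of a cytochrome P450 panel assay.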
A short description of experiment [1]: inhibitors of intracellular T. cruzi replication, confirmation, NIH3T3 host cells, beta-gal luminescence (AID 2044).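 Also: intracellular parasites grown in NIH/3T3 mouse fibroblasts as host cells; luminescent beta-galactosidase reporter signal from transgenic T. cruzi replicating inside host cells; inhibitors lower the luminescence signal.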 It counts as functional, cell-based.
Experiment [2] can be described thus: cytotoxicity toward NIH3T3 fibroblasts, dose response, counter-screen, cell-based, ATP luminescence, mouse fibroblasts (AID 2010).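 Also: cells exposed to compound for about 90 hours before reading.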 It counts as functional.
Experiment [3] concerns the target T1, Heat shock factor protein 1 (Mus musculus, UniProt P38532).
T1 sequence (P38532 whole entry): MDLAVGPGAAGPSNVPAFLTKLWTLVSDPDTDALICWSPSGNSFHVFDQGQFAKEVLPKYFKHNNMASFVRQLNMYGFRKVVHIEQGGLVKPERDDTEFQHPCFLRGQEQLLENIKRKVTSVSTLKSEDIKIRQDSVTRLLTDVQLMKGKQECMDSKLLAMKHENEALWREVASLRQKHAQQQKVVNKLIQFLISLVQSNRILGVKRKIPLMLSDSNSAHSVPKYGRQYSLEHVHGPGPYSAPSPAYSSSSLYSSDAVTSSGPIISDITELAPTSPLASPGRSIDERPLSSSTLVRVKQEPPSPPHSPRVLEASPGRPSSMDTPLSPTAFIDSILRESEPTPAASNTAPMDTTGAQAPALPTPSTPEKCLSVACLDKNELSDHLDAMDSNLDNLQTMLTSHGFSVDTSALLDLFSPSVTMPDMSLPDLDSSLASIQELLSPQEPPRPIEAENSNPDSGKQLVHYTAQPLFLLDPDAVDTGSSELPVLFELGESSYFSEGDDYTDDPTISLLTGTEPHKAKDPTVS
The experiment can be described thus: inhibition of MG132-induced HSE-luciferase signal, confirmation, cell-based, NIH3T3, luminescence, dose retest (AID 2382).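 Also: NIH3T3 fibroblasts with HSF1-driven luciferase reporter stressed by proteasome inhibitor MG132; luminescence from HSF1-driven luciferase expression after 8 hours of MG132 stress.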 It counts as functional.

Another experiment deals with Cytochrome P450 3A4 (Homo sapiens, UniProt P08684).
Chain of Cytochrome P450 3A4 (P08684 whole entry): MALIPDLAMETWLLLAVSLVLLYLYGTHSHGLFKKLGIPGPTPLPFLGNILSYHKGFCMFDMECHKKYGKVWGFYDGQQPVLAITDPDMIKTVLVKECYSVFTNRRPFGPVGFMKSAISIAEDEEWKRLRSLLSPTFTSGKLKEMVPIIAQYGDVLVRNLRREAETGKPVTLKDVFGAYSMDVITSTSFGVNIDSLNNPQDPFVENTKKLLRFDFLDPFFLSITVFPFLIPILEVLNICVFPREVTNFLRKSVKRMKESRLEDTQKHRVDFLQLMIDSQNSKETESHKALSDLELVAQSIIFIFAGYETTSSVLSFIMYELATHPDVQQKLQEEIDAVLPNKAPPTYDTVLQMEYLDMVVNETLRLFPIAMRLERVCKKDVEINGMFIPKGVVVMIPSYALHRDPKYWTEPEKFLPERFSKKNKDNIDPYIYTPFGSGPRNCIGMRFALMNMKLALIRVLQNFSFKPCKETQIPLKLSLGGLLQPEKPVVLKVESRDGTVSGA
In experiment [4] the test system is Streptococcus sp. 'group A'. The experiment can be described thus: growth inhibition of control SK(-) GAS strain, dose response, counter-screen for streptokinase expression inhibitor project, luminescence, kanamycin, BacTiterGlo, confirmation (AID 1900). It counts as functional, organism-based. For orientation: A counterscreen serves to expose hits that act by an unwanted route or on another target.

A further experiment has as its system Streptococcus. Nature of the experiment: Group A Streptococcus viability loss, dose response, counter-screen for streptokinase expression inhibitor project, luminescence, BacTiterGlo (AID 1915).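 Also: potency for reduction of bacterial viability or growth.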 Type of experiment: functional, organism-based.

Chain of Cytochrome P450 2D6 (P10635 whole entry): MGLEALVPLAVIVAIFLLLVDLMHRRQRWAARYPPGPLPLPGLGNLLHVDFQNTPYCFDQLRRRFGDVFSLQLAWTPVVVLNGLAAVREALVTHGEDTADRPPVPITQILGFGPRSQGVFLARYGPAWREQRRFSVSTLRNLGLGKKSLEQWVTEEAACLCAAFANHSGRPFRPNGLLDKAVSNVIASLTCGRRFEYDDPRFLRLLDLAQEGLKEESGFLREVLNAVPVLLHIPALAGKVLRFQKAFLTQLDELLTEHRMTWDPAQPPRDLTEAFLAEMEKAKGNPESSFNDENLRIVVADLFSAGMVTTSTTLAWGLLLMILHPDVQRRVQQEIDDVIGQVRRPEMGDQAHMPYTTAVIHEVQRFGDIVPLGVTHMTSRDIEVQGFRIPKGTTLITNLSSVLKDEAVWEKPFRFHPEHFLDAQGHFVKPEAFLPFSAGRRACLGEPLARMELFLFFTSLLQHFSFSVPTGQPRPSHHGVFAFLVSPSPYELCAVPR

For the molecule `O=c1c(CCc2ccccc2)nc2cncnc2n1Cc1ccc(F)cc1`, on Cytochrome P450 2D6, the concentration at half-maximal activity (AC50) (as a rule, the midpoint of the concentration-response curve, whichever way the signal moves) is 25.1 µM (inconclusive).

For `CCOC(=O)C1(Cc2ccccc2C(F)(F)F)CCN(C(C)CCn2cccn2)CC1` (stereo not drawn), the EC50 (in general, the midpoint of the concentration-response curve) is 0.944 µM (active) in experiment [1] and > 60 µM (not active) in experiment [2].

As for `O=S(=O)(Nc1ccc2oc(-c3ccccc3)nc2c1)c1ccccc1`, the AC50 on Cytochrome P450 2D6 was 25.1 µM (inconclusive).

On to `CCN1CCN(CCNC(=O)CCCCCn2c(=O)[nH]c3cc(C(=O)OC)ccc3c2=O)CC1`, for which, in experiment [3], the EC50 was > 195 µM (not active).

Consider `Cc1cccc2nc(CNC(=O)CC3C(=O)NCCN3Cc3cccc(F)c3)cn12` (stereo not drawn), for which the EC50 in experiment [1] and in experiment [2] was > 60 µM (not active) each time.

With `C/C(=N\NC(=O)CC1N=C(Cc2ccccc2)NNC1=O)c1ccc(Cl)cc1Cl` (stereo not drawn), on Cytochrome P450 2D6, the AC50 is 15.8 µM (inconclusive).

Consider `Cc1cnc(CNc2ncncc2-c2ccccc2C)cn1`, for which the AC50 at Cytochrome P450 2D6 is 12.6 µM (inconclusive).

As to `COCC(=O)N1CCC2(CC1)CN(c1ccccn1)C2`, the AC50 on Cytochrome P450 2D6 is 20 µM (inconclusive).

For the molecule `Cc1ccc2[nH]c(SCc3nc(O)c4cnn(-c5ccccc5)c4n3)nc2c1`, the AC50 at Cytochrome P450 2D6 was 28.2 µM (inconclusive).

In the case of `COC1CCN(Cc2c(C(=O)N3CCN(C4CCCCC4)CC3)nc3ccccn23)CC1`, the EC50 was 1.63 µM (active) in experiment [1] and > 60 µM (not active) in experiment [2].

On to `C=CCN1CC[C@]23c4c5ccc(O)c4O[C@@H]2/C(=N/NC(=O)c2ccccc2)CC[C@@]3(O)[C@H]1C5`, for which the AC50 was 15.8 µM (inconclusive) on Cytochrome P450 2D6 and 3.98 µM (inconclusive) at Cytochrome P450 3A4.

For `CCC(C)(NC(=O)c1ccccc1)C(=O)O` (stereo not drawn), in experiment [3], the EC50 is > 195 µM (not active).

As for `Cc1cccc(CNc2cc(-c3ccccc3Cl)ncn2)c1`, at Cytochrome P450 2D6, the half-maximal activity concentration (AC50) was 39.8 µM (inconclusive).

With `CC(C)CNC(=O)C1CCN(Cc2ccc(OCc3ccccc3)cc2)CC1`, the EC50 in experiment [3] is > 195 µM (not active).

On to `O=C(c1ccc2c3c(cccc13)CC2)C1CCCN(Cc2cccnc2)C1` (stereo not drawn), for which the EC50 is 0.709 µM (active) in experiment [1] and > 60 µM (not active) in experiment [2].

With `Fc1cccc(NC(=S)N2CCn3cccc3C2c2cccnc2)c1` (stereo not drawn), the EC50 in experiment [1] is 0.885 µM (active); in experiment [2] it was > 60 µM (not active).

Take `COc1cc(C(=O)NC2CCN(Cc3nnnn3Cc3cccs3)CC2)cc(OC)c1OC`: the EC50 in experiment [3] is recorded as > 195 µM (not active).

As for `O=C(c1ccncc1)N1CCN(c2ccc(F)cc2)CC1`, the EC50 in experiment [3] was > 195 µM (not active).

`CN1[C@@H]2CC[C@H]1CC(O[C@@H](c1ccccc1)c1ccc(Cl)cc1)C2` (stereo partly drawn): at Cytochrome P450 3A4, the half-maximal activity concentration (AC50) is 12.6 µM (inconclusive) and 15.8 µM (inconclusive).

As for `COc1ccc(NC(=O)CCOc2ccccc2)cc1`, at Cytochrome P450 2D6, the AC50 was 22.4 µM (inconclusive).

In the case of `Cc1ccc(C(=O)N/N=C\c2ccc([N+](=O)[O-])o2)cn1`, the EC50 in experiment [1] was 0.238 µM (active); in experiment [2] it was > 60 µM (not active).

As to `O=C(NCC1CCCO1)c1onc(CSc2ccc(Cl)cc2)c1C(=O)O` (stereo not drawn), the EC50 in experiment [3] was 9.58 µM (active).

As for `O=[N+]([O-])c1nn(-c2ccc3c(c2)OCCO3)[n+]([O-])c1NCc1ccc(F)cc1`, the values for the EC50 in experiment [1] and in experiment [2] were 0.595 µM (active) and > 60 µM (inconclusive), respectively.

Turning to `C=CCN(c1ccccc1)S(=O)(=O)c1cccc(C(=O)NC2CCN(Cc3ccccc3)CC2)c1`, the results for the EC50 in experiment [1] and in experiment [2] were 0.215 µM (active) and 26.8 µM (active), respectively.

As for `O=C(CSC1=NCCN1)Nc1ccccc1`, the AC50 at Cytochrome P450 3A4 is 5.01 µM (inconclusive).

For the molecule `COc1ccc(C(=O)N2CCC3(CCCN(Cc4ccccc4)C3)CC2)cc1`, the AC50 at Cytochrome P450 3A4 was 31.6 µM (inconclusive).

Take `COc1ccc(CN(C)CC(O)COc2ccc(-c3ccccc3)cc2)cc1OC` (stereo not drawn): the EC50 in experiment [1] was 0.447 µM (active); in experiment [2] it was 21.7 µM (active).

Consider `C/C(CCC(=O)OC[C@@H]1O[C@H](C#Cc2ccccc2)C=C[C@@H]1Oc1ccc(C)cc1)=N/OC[C@@H](C)[C@H](OCc1ccccc1)C(C)C`, for which the AC50 on Cytochrome P450 3A4 was 3.98 µM (inconclusive).

Turning to `CCOC(=O)c1cccc(NC(=O)CCS(=O)(=O)c2ccc(Br)s2)c1`, in experiment [3], the EC50 is listed as > 195 µM (not active).

As for `CCOc1ccc(C(=O)c2ccc([N+](=O)[O-])cc2Cl)cc1`, the values for the EC50 in experiment [1] and in experiment [2] were 2.18 µM (active) and > 30 µM (not active), respectively.

Take `CNC[C@H](O)c1ccc(OC(=O)C(C)(C)C)c(OC(=O)C(C)(C)C)c1`: the AC50 on Cytochrome P450 3A4 was 10 µM (inconclusive).

Regarding `CCOC(=O)C1(CCOc2ccccc2)CCN(Cc2cccc3c2OCO3)CC1`, the values for the EC50 in experiment [1] and in experiment [2] were 2.1 µM (active) and > 60 µM (not active), respectively.

Turning to `COc1ccc(NC(=O)c2cc3cc(OC)ccc3oc2=N)cc1`, the EC50 in experiment [3] is > 195 µM (not active).

As for `CN(Cc1ccccc1)C(=O)c1ccccc1NC(=O)C1=CSCCO1`, in experiment [3], the EC50 is on record as > 195 µM (not active).

Regarding `COC(=O)[C@@H]1c2cc3c(c(O)c2[C@@H](O)C[C@]1(C)O)C(=O)c1c(O)cc2c(c1C3=O)O[C@H]1O[C@@]2(C)[C@@H](O)[C@H](N(C)C)[C@H]1O`, the AC50 on Cytochrome P450 2D6 was 5.01 µM (inconclusive).

`Cc1cc(C(F)(F)F)nc(SCc2ccc(C(=O)O)o2)n1`: in experiment [3], the 50% effective concentration (EC50) is listed as > 195 µM (not active).

For the molecule `Cc1c(-c2cccc(NC(=O)c3ccco3)c2)nc2ncccn12`, the EC50 in experiment [1] is 1.78 µM (active); in experiment [2] it was > 60 µM (not active).

For `C/C(N)=C(/C#N)C(=O)CSc1nc2scc(-c3ccc(F)cc3)c2c(=O)n1C`, the results for the EC50 (in experiment [4]; in the experiment with Streptococcus) were 2 µM (active) and 3.17 µM (active), respectively.

Consider `CCc1cccc2c(-c3ccccc3)c3c(nc12)OCC3`, for which the concentration at half-maximal activity (AC50) at Cytochrome P450 2D6 was 15.8 µM (inconclusive).

For `Cc1ccc(NC(=O)c2cc(NC(=O)c3ccco3)ccc2N2CCOCC2)cc1`, the EC50 in experiment [3] is > 195 µM (not active).

Consider `Clc1cc(/C=N\NC2=NCCN2)cc(Cl)n1`, for which the EC50 in experiment [1] is 0.663 µM (active); in experiment [2] it was > 60 µM (not active).

For the molecule `O=C(NC(=S)Nc1ccc2c(c1)OCO2)c1ccccc1`, the concentration at half-maximal activity (AC50) at Cytochrome P450 2D6 was 3.55 µM (inconclusive).

For `CN(C)c1ncc2nc(-c3ccc(F)cc3)c(=O)n(-c3ccccc3)c2n1`, on Cytochrome P450 2D6, the AC50 is 1.58 µM (inconclusive).

Turning to `CC(C)n1cc(CN2CCN(C)C(CCO)C2)c2ccccc21` (stereo not drawn), the EC50 in experiment [1] was 0.109 µM (active); in experiment [2] it was > 60 µM (not active).

With `CCCOc1ccc(CNC(=S)N/N=C/c2ccc([N+](=O)[O-])cc2)cc1`, the values for the EC50 in experiment [1] and in experiment [2] were 1.99 µM (active) and > 60 µM (not active), respectively.

For the molecule `COc1ccc(OC)c2nc(O)c(CCNC(=O)c3ccc(S(=O)(=O)N4CCCC4)cc3)cc12`, the AC50 at Cytochrome P450 2D6 is 20 µM (inconclusive).

With `Cc1cc(C(F)F)nn1CC(=O)NC1C(=O)N2C(C(=O)O)=C(CSc3nnnn3C)CSC12` (stereo not drawn), the EC50 is 0.09 µM (active) in experiment [4] and 0.106 µM (active) in the experiment with Streptococcus.

As for `O=C(N/N=C1/C[C@@H](O)[C@@H](O)[C@@H]2[C@H]3C(=O)N(c4ccc(F)cc4F)C(=O)[C@@H]3CC[C@H]12)OCc1ccccc1`, the half-maximal activity concentration (AC50) on Cytochrome P450 3A4 is 3.98 µM (inconclusive).

On to `CCO/C(O)=C1\C(C)=NC(=S)NC1c1ccsc1` (stereo not drawn), for which, in experiment [3], the half-maximal effective concentration (EC50) is > 195 µM (not active).

Regarding `CCCCCC(=O)N1CCCC(c2nc(-c3ccc(OC)cc3)no2)C1` (stereo not drawn), the AC50 at Cytochrome P450 2D6 is 15.8 µM (inconclusive).
